Test results taken from patent publication US20240327334A1, “Covalent Inhibitors As Antiviral Agents” (Enanta Pharmaceuticals, Inc., priority 2022, published 2024).

Each molecule was assayed against SARS-CoV-2 Papain-like (PLpro) protease (Severe acute respiratory syndrome coronavirus 2, UniProt P0DTD1) (assay: SARS-CoV-2 Papain-like (PLpro) protease biochemical enzyme inhibition assay (ubiquitin-fluorophore substrate, Ub-R110)). Details: Ub-R110 substrate; run in duplicate; read-out: PLpro IC50.

Row | Structure (SMILES) | IC50 [nM]
1 | O=C(NCC#Cc1nccs1)C(=O)NCc1ccccc1C(=O)NC1(c2cc(F)cc(C(=O)N3CCOCC3)c2)CC1 [Example 138] | < 100
2 | O=C(NC/C=C1\CCOC1=O)C(=O)NCc1ccccc1C(=O)NC1(c2cc(Br)cc3ccccc23)CC1 [Example 151] | < 100
3 | COc1cc(C2(NC(=O)c3ccccc3CNC(=O)C(=O)N[C@@H](C)C#Cc3ccc(C#N)cc3OC(F)(F)F)CC2)cc2cn(C3CC3)nc12 [Example 216] | < 100
4 | C#CCNC(=O)C(=O)NCc1ccccc1C(=O)NC1(c2cc(C#N)cc(-c3cccs3)c2)CC1 [Example 128] | < 100
5 | N#CCNC(=O)C(=O)NCc1ccccc1C(=O)NC1(c2cc(-c3cnn(C(F)F)c3)cc3ccccc23)CC1 [Example 285] | < 100
6 | O=C(NC/C=C/C(=O)N1CC(F)(F)C1)C(=O)NCc1ccccc1C(=O)NC1(c2cccc3ccccc23)CC1 [Example 554] | 100 to 1000
7 | C#CCNC(=O)C(=O)NCc1ccccc1C(=O)NC1(c2cccc3nn(C)cc23)CC1 [Example 342] | < 100
8 | N#CCNC(=O)C(=O)NCc1ccccc1C(=O)NC1(c2ccc(F)c(-c3cnn(C4CC4)c3)c2)CC1 [Example 221] | < 100
9 | O=C(NCC#Cc1ncco1)C(=O)NCc1ccccc1C(=O)NC1(c2ccc3ccccc3c2)CC1 [Example 137] | < 100
10 | N#CN1CC(CNC(=O)C(=O)NCc2ccccc2C(=O)NC2(c3cc(F)cc(-c4cnn(C5CC5)c4)c3)CC2)C1 [Example 431] | 100 to 1000
11 | C[C@@H](C#Cc1nccs1)NC(=O)C(=O)NCc1ccccc1C(=O)NC1(c2cc(Cl)cc(-c3ncco3)c2)CC1 [Example 493] | < 100
12 | C[C@@H](C#Cc1ccc(C#N)cc1C(F)(F)F)NC(=O)C(=O)NCc1ccccc1C(=O)NC1(c2ccc3nn(C)cc3c2)CC1 [Example 109] | < 100
13 | COc1cccnc1C#CCNC(=O)C(=O)NCc1ccccc1C(=O)NC1(c2cc(F)cc(-c3cnn(C4CC4)c3)c2)CC1 [Example 261] | < 100
14 | C#CCNC(=O)C(=O)NCc1ccccc1C(=O)NC1(c2ccc(F)c(-c3cccs3)c2)CC1 [Example 223] | < 100
15 | N#CCNC(=O)C(=O)NCc1ccccc1C(=O)NC1(c2cn(-c3cnn(C4CC4)c3)c3ncccc23)CC1 [Example 409] | < 100
16 | C#CCNC(=O)C(=O)NCc1ccccc1C(=O)NC1(c2cc(F)cc(-c3cccs3)c2)CC1 [Example 224] | < 100
17 | CONC(=O)/C=C/CNC(=O)C(=O)NCc1ccccc1C(=O)NC1(c2cccc3ccccc23)CC1 [Example 560] | 100 to 1000
18 | CN(C(=O)c1cc(Cl)cc(C2(NC(=O)c3ccccc3CNC(=O)C(=O)NCC#Cc3nccs3)CC2)c1)c1ccc(F)cc1 [Example 79] | < 100
19 | C#CCNC(=O)C(=O)NCc1ccccc1C(=O)NC1(c2cc(-c3cn(C4CC4)nn3)cc(C(F)(F)F)c2)CC1 [Example 59] | < 100
20 | N#CCNC(=O)C(=O)NCc1ccccc1C(=O)NC1(c2cc(-c3ccc(CO)s3)cc3ccccc23)CC1 [Example 350] | < 100
21 | N#CCNC(=O)C(=O)NCc1ccccc1C(=O)NC1(c2cc(Cl)cc(-c3cncs3)c2)CC1 [Example 448] | < 100
22 | Cn1ccc(-c2cc(C3(NC(=O)c4ccccc4CNC(=O)C(=O)NCC#N)CC3)c3ccccc3c2)n1 [Example 290] | < 100
23 | N#CCNC(=O)C(=O)NCc1ccccc1C(=O)NC1(c2cc(C#N)cc3ccccc23)CC1 [Example 294] | < 100
24 | O=C(NC/C=C1\CCOC1=O)C(=O)NCc1ccccc1C(=O)NC1(c2cccc3ccccc23)CC1 [Example 153] | < 100
25 | C#CCNC(=O)C(=O)NCc1ccccc1C(=O)NC1(c2cccc3cc(F)ccc23)CC1 [Example 56] | < 100
26 | CON(C)C(=O)/C=C/CNC(=O)C(=O)NCc1ccccc1C(=O)NC1(c2cccc3ccccc23)CC1 [Example 573] | 100 to 1000
27 | Cc1n[nH]cc1-c1cc(C2(NC(=O)c3ccccc3CNC(=O)C(=O)NCC#N)CC2)c2ccccc2c1 [Example 284] | < 100
28 | O=C(NCC#Cc1ncc(F)cn1)C(=O)NCc1ccccc1C(=O)NC1(c2cc(F)cc(-c3cnn(C4CC4)c3)c2)CC1 [Example 248] | < 100
29 | C[C@@H](NC(=O)c1ccccc1CNC(=O)C(=O)NCC#N)c1cc(-c2cnn(C3CC3)c2)cc(C(F)(F)F)c1 [Example 458] | < 100
30 | O=C(NCC#Cc1nccs1)C(=O)NCc1ccccc1C(=O)NC1(c2ccn3nccc3c2)CC1 [Example 399] | < 100

What follows are molecules tested on SARS-CoV-2 replicon (assay: microbe, parasite or virus in culture). Details: Severe acute respiratory syndrome coronavirus 2, Huh-7.
Format: cell-based

Row | Structure (SMILES) | EC50 [nM]
31 | O=C(NCC#Cc1nccs1)C(=O)NCc1ccccc1C(=O)NC1(c2cc(F)cc(C(=O)N3CCOCC3)c2)CC1 [Example 138] | < 1000
32 | O=C(NC/C=C1\CCOC1=O)C(=O)NCc1ccccc1C(=O)NC1(c2cc(Br)cc3ccccc23)CC1 [Example 151] | < 1000
33 | COc1cc(C2(NC(=O)c3ccccc3CNC(=O)C(=O)N[C@@H](C)C#Cc3ccc(C#N)cc3OC(F)(F)F)CC2)cc2cn(C3CC3)nc12 [Example 216] | < 1000
34 | C#CCNC(=O)C(=O)NCc1ccccc1C(=O)NC1(c2cc(C#N)cc(-c3cccs3)c2)CC1 [Example 128] | < 1000
35 | N#CCNC(=O)C(=O)NCc1ccccc1C(=O)NC1(c2cc(-c3cnn(C(F)F)c3)cc3ccccc23)CC1 [Example 285] | < 1000
36 | O=C(NC/C=C/C(=O)N1CC(F)(F)C1)C(=O)NCc1ccccc1C(=O)NC1(c2cccc3ccccc23)CC1 [Example 554] | 1000 to 10000
37 | C#CCNC(=O)C(=O)NCc1ccccc1C(=O)NC1(c2cccc3nn(C)cc23)CC1 [Example 342] | < 1000
38 | N#CCNC(=O)C(=O)NCc1ccccc1C(=O)NC1(c2ccc(F)c(-c3cnn(C4CC4)c3)c2)CC1 [Example 221] | 1000 to 10000
39 | O=C(NCC#Cc1ncco1)C(=O)NCc1ccccc1C(=O)NC1(c2ccc3ccccc3c2)CC1 [Example 137] | < 1000
40 | N#CN1CC(CNC(=O)C(=O)NCc2ccccc2C(=O)NC2(c3cc(F)cc(-c4cnn(C5CC5)c4)c3)CC2)C1 [Example 431] | 1000 to 10000
41 | C[C@@H](C#Cc1nccs1)NC(=O)C(=O)NCc1ccccc1C(=O)NC1(c2cc(Cl)cc(-c3ncco3)c2)CC1 [Example 493] | < 1000
42 | C[C@@H](C#Cc1ccc(C#N)cc1C(F)(F)F)NC(=O)C(=O)NCc1ccccc1C(=O)NC1(c2ccc3nn(C)cc3c2)CC1 [Example 109] | < 1000
43 | COc1cccnc1C#CCNC(=O)C(=O)NCc1ccccc1C(=O)NC1(c2cc(F)cc(-c3cnn(C4CC4)c3)c2)CC1 [Example 261] | < 1000
44 | C#CCNC(=O)C(=O)NCc1ccccc1C(=O)NC1(c2ccc(F)c(-c3cccs3)c2)CC1 [Example 223] | < 1000
45 | N#CCNC(=O)C(=O)NCc1ccccc1C(=O)NC1(c2cn(-c3cnn(C4CC4)c3)c3ncccc23)CC1 [Example 409] | 1000 to 10000
46 | C#CCNC(=O)C(=O)NCc1ccccc1C(=O)NC1(c2cc(F)cc(-c3cccs3)c2)CC1 [Example 224] | < 1000
47 | CONC(=O)/C=C/CNC(=O)C(=O)NCc1ccccc1C(=O)NC1(c2cccc3ccccc23)CC1 [Example 560] | 1000 to 10000
48 | CN(C(=O)c1cc(Cl)cc(C2(NC(=O)c3ccccc3CNC(=O)C(=O)NCC#Cc3nccs3)CC2)c1)c1ccc(F)cc1 [Example 79] | < 1000
49 | C#CCNC(=O)C(=O)NCc1ccccc1C(=O)NC1(c2cc(-c3cn(C4CC4)nn3)cc(C(F)(F)F)c2)CC1 [Example 59] | < 1000
50 | N#CCNC(=O)C(=O)NCc1ccccc1C(=O)NC1(c2cc(-c3ccc(CO)s3)cc3ccccc23)CC1 [Example 350] | < 1000
51 | N#CCNC(=O)C(=O)NCc1ccccc1C(=O)NC1(c2cc(Cl)cc(-c3cncs3)c2)CC1 [Example 448] | 1000 to 10000
52 | Cn1ccc(-c2cc(C3(NC(=O)c4ccccc4CNC(=O)C(=O)NCC#N)CC3)c3ccccc3c2)n1 [Example 290] | < 1000
53 | N#CCNC(=O)C(=O)NCc1ccccc1C(=O)NC1(c2cc(C#N)cc3ccccc23)CC1 [Example 294] | < 1000
54 | O=C(NC/C=C1\CCOC1=O)C(=O)NCc1ccccc1C(=O)NC1(c2cccc3ccccc23)CC1 [Example 153] | < 1000
55 | C#CCNC(=O)C(=O)NCc1ccccc1C(=O)NC1(c2cccc3cc(F)ccc23)CC1 [Example 56] | < 1000
56 | CON(C)C(=O)/C=C/CNC(=O)C(=O)NCc1ccccc1C(=O)NC1(c2cccc3ccccc23)CC1 [Example 573] | 1000 to 10000
57 | Cc1n[nH]cc1-c1cc(C2(NC(=O)c3ccccc3CNC(=O)C(=O)NCC#N)CC2)c2ccccc2c1 [Example 284] | < 1000
58 | O=C(NCC#Cc1ncc(F)cn1)C(=O)NCc1ccccc1C(=O)NC1(c2cc(F)cc(-c3cnn(C4CC4)c3)c2)CC1 [Example 248] | < 1000
59 | C[C@@H](NC(=O)c1ccccc1CNC(=O)C(=O)NCC#N)c1cc(-c2cnn(C3CC3)c2)cc(C(F)(F)F)c1 [Example 458] | < 1000
60 | O=C(NCC#Cc1nccs1)C(=O)NCc1ccccc1C(=O)NC1(c2ccn3nccc3c2)CC1 [Example 399] | < 1000
